Literature values, collected in patent US20250099444A1, “Methods of Treating a Subject for Long-Haul COVID-19, and Compositions for Use in the Same” (IncellDx, Inc., priority 2022, published 2025).

System: R5-tropic HIV-1

SMILES: Cc1nnc(C(C)C)n1[C@@H]1C[C@H]2CC[C@@H](C1)N2CC[C@H](NC(=O)C1CCC(F)(F)CC1)c1ccccc1 [maraviroc, 4,4-difluoro-N-[(1S)-3-[(1S,5R)-3-(3-methyl-5-propan-2-yl-1,2,4-triazol-4-yl)-8-azabicyclo[3.2.1]octan-8-yl]-1-phenylpropyl]cyclohexane-1-carboxamide]
- incidence of hepatoxicity (MOTIVATE study) (96 weeks of treatment at 300 mg B.I.D): low incidence of hepatoxicity
- death and other health threats, long-term follow-up of MOTIVATE trials (>5 year follow-up, HIV patients): limited instances of death and other health threats such as hepatic failure and myocardial infarctions
- HIV viral loads (MOTIVATE 1 and MOTIVATE 2) (individuals with R5-tropic HIV-1): lower levels of HIV viral loads
